pIC50: −log10 of the molar value. Where two headings read alike, the source gives them in different places.
What was measured:
PtK2 cells = assay: Inhibition of lysosomal acidification (LysoTracker staining); type: cell-based, potoroo; conditions: 4 hours with inhibitor
Description: PtK2 (ATCC CCL-56) or KB-3-1 cells were grown on glass coverslips (13 mm diameter) in four-well-plates. Exponentially growing cells were incubated with the inhibitors for 4 hours and stained for lysosomes with 50 nM LysoTracker Red DND-99 and for mitochondria with 75 nM MitoTracker Green FM (both from Molecular Probes) at 37°C for 30 min. The nuclei were stained using Hoechst 33258 (5 μg/ml). The coverslips were mounted upside down in PBS, fixed with nail polish, and observed under the fluorescent microscope.

bacterial growth = conditions: ref [11],[15],[17]; cited from earlier work
3Y1 = assay: Growth inhibition of 3Y1 cells (MTT assay); type: cell-based, rat; conditions: read-out: IC50 growth inhibition
Description: (§1) Cell lines were obtained from the German Collection of Microorganisms and Cell Cultures (DSMZ). Cell lines 3Y1 and M1 (embryonal fibroblasts from 129/Ola × C57BL/6 mice, [30]) were a generous gift from Dr. S. Miyamoto, Fukoka, Japan, and Dr. P. F. Mühlradt, Braunschweig, Germany. All cell lines were cultivated under conditions recommended by the supplier. Growth inhibition was measured in microtiterplates. Aliquots of 120 μl of the suspended cells (50,000/ml) were given to 60 μl of a serial dilution of the inhibitor. After 5 days, growth was determined using the MTT assay.

KB-V1 = assay: Growth inhibition of multidrug-resistant KB-V1 cells (MTT assay), with or without verapamil; type: cell-based; conditions: 120 h; KB-V1, mdr human cervix carcinoma; without verapamil; MTT after 5 days
Description: The novel antibiotics archazolids and apicularens (Fig. 1) were checked for their impact on the cell growth of a variety of mammalian cell lines from different tissues (Tab. 1). […] Apicularen B was the only exception, with an average IC50 value two orders of magnitude higher. Growth inhibition of the multidrug-resistant cell line KB-V1 was also measured in the presence of verapamil. […] The data in Tab 1. show, that unlike the archazolids, the apicularens are poor substrates of Pgp. To visualize the impact of the antibiotics, PtK2 (potoroo kidney) cells were incubated with the inhibitors and stained for intact acidic lysosomes (Fig. 2). […] The same observation was made with KB-3-1 cells (data not shown). […] Unlike the cell lines listed in Tab. 1, the growth of PtK2 cells was not completely stopped. The same holds true for A-498 cells (human kidney carcinoma). Both cell lines grow epithelial-like. There was obviously a differential reaction of cell lines to V-ATPase inhibitors. For A-431 cells (human epidermoid carcinoma) a dependence on the expression of the EGF receptor was shown.
as §1

[1] = molecular target: T1, V-ATPase holoenzyme from the midgut of the tobacco hornworm (Manduca sexta, UniProt P31403); assay: Inhibition of purified V-ATPase holoenzyme activity; type: biochemical; conditions: for IC50 per mg of protein, purified V-ATPase: equivalent of the half-maximal concentration
T1 construct: purified V-ATPase holoenzyme from the midgut of the tobacco hornworm; from tissue; host or cells: midgut of fifth instar Manduca sexta larvae
T1 sequence (P31403 whole entry): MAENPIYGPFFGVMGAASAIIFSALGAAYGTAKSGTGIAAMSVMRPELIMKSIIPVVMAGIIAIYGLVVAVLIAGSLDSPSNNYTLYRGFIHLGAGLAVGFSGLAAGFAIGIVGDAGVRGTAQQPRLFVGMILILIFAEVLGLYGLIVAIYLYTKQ
Description: (§2) The V-ATPase holoenzyme was purified as published elsewhere. Preparation of highly purified membranes containing Na^+/K^+-ATPase from pig kidney followed the protocol of Jørgensen with the three main steps of differential centrifugation, incubation with SDS in the presence of ATP and sucrose density gradient centrifugation in a fixed angle rotor, and led to a specific enzyme activity which was in the same range as that reported by the authors. The resulting sample was stored frozen at -20°C. To prepare crude membrane extracts, the hearts of three mice were washed three times with an ice-cold buffer of pH 8.1 consisting of 0.25 M sucrose, 5 mM Tris-HCl, 5 mM EDTA, and 10 mM Pefabloc SC (Biomol), homogenized in 5 ml of this buffer and centrifuged at 4°C for 25 min at 233,000 × gmax in a fixed angle rotor. The resulting pellet was resuspended in 5 ml of a buffer of pH 7.5, consisting of 5 mM Tris-MOPS (3-morpholinopropanesulfonic acid), 10 mM NaCl, 10 mM Pefabloc SC, 9.6 mM 2-mercaptoethanol, 0.53 mM EGTA and 0.1 % Triton X-100. After an aliquot for protein determination had been taken, 10% bovine serum albumin (final concentration) was added to the suspension which was then stored on ice until the activity assays were run. Beef heart mitochondria were isolated by differential centrifugation, following the protocol of Smith by using a blender to homogenize the heart mince. The initial homogenization buffer consisted of 250 mM saccharose, 10 mM KH2PO4, 10 mM Tris, 2 mM EGTA, 2 mM MgCl2, pH 7.4, and further isolation procedures were carried out in the same medium without EGTA [24]. Submitochondrial particles were obtained by ultrasonic treatment of the mitochondria.
(§3) Standard V-ATPase assays with a final volume of 160 μl and a pH of 8.1 consisted of 3–4 μg of protein, 50 mM Tris-MOPS, 3 mM 2-mercaptoethanol, 1 mM MgCl2, 20 mM KCl, 0.003% C12E10, 20 mM NaCl, and 3 mM Tris-HCl. After 5 min of pre-incubation at 30°C with or without inhibitors, 1 mM Tris-ATP was added and after incubation for 2 min the reaction was stopped by placing the tube in liquid nitrogen. Assays using Na^+/K^+-ATPase were performed in 160 μl at pH 7.5 and contained 0.5 μg of protein, 50 mM Tris-MOPS, 5 mM imidazole, 0.2 mM EDTA, 4 mM MgCl2, 20 mM KCl and 100 mM NaCl. After 5 min of pre-incubation at 37°C with or without inhibitors, 3 mM Tris-ATP was added and after 1 min of incubation the reaction was stopped by placing the tube in liquid nitrogen. […] After 5 min of pre-incubation at 30°C with or without inhibitors, 1 mM Tris-ATP was added and after an incubation time of 10 min the reaction was stopped by placing the tubes in liquid nitrogen. ATPase assays with submitochondrial particles from beef heart were performed in a final volume of 1 ml and a pH of 8.0. The samples contained 9–12 μg protein, 50 mM Tris, 50 mM KCl and 2.5 mM MgCl2. After 5 min of preincubation with or without inhibitors, 5 mM ATP was added, and after an additional incubation time of 15 min the reaction was stopped by the addition of 0.4 ml of 20 % TCA.
(§4) Inorganic phosphate produced in the assays of V-ATPase, Na^+/K^+-ATPase and mouse heart F-ATPase was measured according the protocol of Wieczorek et al., while the determination of inorganic phosphate produced in the assays of beef heart F-ATPase followed the method of Fiske and Subarrow using ascorbic acid as reducing agent.
Fifth instar larvae of M. sexta (Lepidoptera, Sphingidae), weighing 6–8 g, were reared under long day conditions (16 h of light) at 27°C using a synthetic diet modified according to Bell et al.

Vo subunit c [2] = molecular target: T2, Vo subunit c (Manduca sexta, UniProt P31403); assay: Protection of V-ATPase subunit c from photoaffinity labelling by I-concanolide A; type: binding; conditions: pre-incubation 100 μM or 10 μM, 60 min on ice; I-concanolide A 10 μM; UV
T2 construct: from tissue; host or cells: midgut of Manduca sexta larvae (purified V-ATPase)
T2 sequence (P31403 whole entry): as above
Description: Twenty micrograms of the samples were pre-incubated with the inhibitors for 1 h on ice. The labelled I-concanolide A was then added to give a final concentration of 10 μM. Controls were run without effectors. Mixtures with volumes of 40 μl were incubated for an additional 1 h on ice and then treated for 3 min with UV light (366 nm) on ice. After UV irradiation, 10 μl of 5-fold sample buffer was added, the mixture was heated for 45 s at 95°C, cooled on ice, and subjected to Tricine-SDS-PAGE (16.5% T, 3% C separating gel and 10%T, 3% C spacer gel), followed by Coomassie staining. The gels were sealed in plastic wrap before they were exposed to a phosphoscreen for up to 72 h and analyzed with the aid of a phosphoimager (Molecular Dynamics).

A-594 [3] = test system: A-594; set-up: method as in PMID 10048565; conditions: A-594, human lung carcinoma; ref [15]; read-out: IC50 growth inhibition; cited from earlier work
Na+/K+-ATPase = molecular target: T3, Na+/K+-ATPase (Sus scrofa, UniProt P05024); assay: Inhibition of Na+/K+-ATPase from pig kidney; type: biochemical; conditions: inhibitor 1 μM
T3 construct: highly purified, Na^+/K^+-ATPase containing plasma membranes from pig kidney; from tissue; host or cells: pig kidney, purified plasma membranes
Description: as §2, §3, §4

M1 = assay: Growth inhibition of M1 cells (MTT assay); type: cell-based, mouse; conditions: 120 h, read-out: IC50 growth inhibition
Description: as §1

L-929 = test system: L-929; set-up: method as in PMID 12931860; conditions: L-929, murine connective tissue; ref [17]; read-out: IC50 growth inhibition; cited from earlier work
A-594 [4] = assay: Growth inhibition of A-594 cells (MTT assay); type: cell-based, human; conditions: 120 h, read-out: IC50 growth inhibition
Description: as §1

F-ATPase [5] = molecular target: T4, F-ATPase (Bos taurus, UniProt P00829); assay: Inhibition of F-ATPase activity in submitochondrial particles from beef heart; type: biochemical; conditions: beef heart submitochondrial particles
T4 construct: Submitochondrial particles were obtained by ultrasonic treatment of the mitochondria; from tissue; host or cells: beef heart mitochondria, submitochondrial particles
Description: as §2, §3, §4

fungi = conditions: ref [11],[15],[17]; cited from earlier work
F-ATPase [6] = molecular target: T5, F-ATPase (Mus musculus, UniProt P56480); assay: Inhibition of F-ATPase activity in crude membranes from mouse heart; type: biochemical; conditions: mouse heart crude membranes
T5 construct: we prepared mitochondria rich crude membranes from mouse heart; from tissue; host or cells: mouse heart, crude membrane extract
Description: as §2, §3, §4

[7] = molecular target: T1, V-ATPase holoenzyme from the midgut of the tobacco hornworm; set-up: method as in PMID 12186879; conditions: ref [10], cited from earlier work; for pIC50: read-out: half-maximal inhibition concentration of purified V-ATPase
Vo subunit c [8] = molecular target: T2, Vo subunit c; set-up: method as in PMID 12186879; conditions: previous study; ref [10]; cited from earlier work
V-ATPases from fungi = conditions: Saccharomyces cerevisiae or Neurospora crassa; ref [11],[15],[17]; cited from earlier work
mammalian V-ATPases = conditions: ref [11],[15],[17]; cited from earlier work
[9] = 120 h, 3Y1, rat embryogenic fibroblast cell line, MTT after 5 days
[10] = M1, mouse embryogenic fibroblast cell line, MTT after 5 days

| Compound | red LysoTracker staining indicating acidic lysosomes (PtK2 cells) | inhibition of bacterial growth (bacterial growth) | pIC50 (3Y1; [9]) | pIC50 (KB-V1) | IC50 per mg of protein, purified V-ATPase [1] | labelling of subunit c by I-concanolide A after pre-incubation (Vo subunit c [2]) | specific activity of Na+/K+-ATPase (Na+/K+-ATPase; experiment 1, control 19.0) | specific activity of Na+/K+-ATPase (Na+/K+-ATPase; experiment 2, control 15.9) | effect on Na+/K+-ATPase activity (Na+/K+-ATPase) | pIC50 (M1; [10]) | pIC50 (L-929) | IC50 per mg of protein, purified V-ATPase [7] | pIC50 [7] | labelling of / binding to subunit c (Vo subunit c [8]) | also measured |
| --- | --- | --- | --- | --- | --- | --- | --- | --- | --- | --- | --- | --- | --- | --- | --- |
| CC/C=C\C=C/C(=O)N/C=C/C[C@H]1C[C@H]2C[C@H](O)C[C@H](Cc3cccc(O)c3C(=O)O1)O2 [apicularen A] | disappeared | failed to inhibit | 8.49 | 7.64 | ca. 0.8 nmol per mg of protein | did not appear to interfere | 17.3 µmol/mg/min | 13.2 µmol/mg/min | only slightly affected | 8.85 |  |  |  |  | pIC50 ([1]; purified holoenzyme, 3–4 μg protein, pH 8.1, 30°C, read-out: half-maximal inhibition concentration of purified V-ATPase): ~7.70; pIC50 (A-594 [3]): 9.64 |
| CNC(=O)O[C@@H](CC(C)C)c1nc([C@H]2OC(=O)/C(C)=C/C/C(C)=C/[C@@H](O)[C@@H](C)\C=C(C)/C=C(C)\C=C\[C@@H](O)[C@H](C)[C@H](OC)/C(C)=C/C=C/[C@@H]2C)cs1 [archazolid A] | disappeared | failed to inhibit |  | 7.32 | ca. 0.8 nmol per mg of protein | completely abolished | 17.1 µmol/mg/min | 12.2 µmol/mg/min | only slightly affected |  | 9.09 |  |  |  | pIC50 (3Y1; Rattus norvegicus, 3Y1, 120 h): 9.02; pIC50 (A-594 [4]; Homo sapiens): 9.27; pIC50 [1]: ~7.70; pIC50 (M1; Mus musculus, Fibroblast): 9.57 |
| archazolid |  |  |  |  |  |  |  |  |  |  |  |  |  |  | ATPase activity reduced to (remaining activity) (F-ATPase [5]; inhibitor 1 μM): approximately 80%; effect of increased inhibitor concentration on F-ATPase activity (F-ATPase [5]; inhibitor 10 μM): no substantial effect; activity against fungi (fungi): weak activity; ATPase activity reduced to (remaining activity) (F-ATPase [6]; inhibitor 1 μM): approximately 80%; effect of increased inhibitor concentration on F-ATPase activity (F-ATPase [6]; inhibitor 10 μM): no substantial effect |
| C/C=C/[C@H]1O[C@@](O)([C@@H](C)[C@H](O)[C@H](C)[C@H]2OC(=O)/C(OC)=C/C(C)=C/[C@@H](C)[C@@H](O)[C@@H](CC)[C@@H](O)[C@H](C)C/C(C)=C/C=C/[C@@H]2OC)C[C@@H](O[C@H]2C[C@@H](O)[C@H](OC(N)=O)[C@@H](C)O2)[C@@H]1C [concanamycin A, reference compound] | disappeared |  | 8.85 | 7.55 |  |  | 16.7 µmol/mg/min | 12.7 µmol/mg/min | slight inhibition of comparable size | 9.25 | 9.64 | ca. 0.5 nmol per mg of protein | ~8.00 | prevented | pIC50 (A-594 [4]; A-594, human lung carcinoma, MTT after 5 days): 9.77 |
| salicylihalamide |  | failed to inhibit |  |  |  |  |  |  |  |  |  | ca. 0.5 nmol per mg of protein | ~8.00 | does not bind to subunit c | inhibition of V-ATPases from fungi (V-ATPases from fungi): not at all; inhibition of mammalian V-ATPases (mammalian V-ATPases): effectively inhibited |

— PMC1190152, “Archazolid and apicularen: Novel specific V-ATPase inhibitors” (BMC Biochemistry, 2005)
